{"source": "paper PMC10580319", "about": "“Quantitative Imaging of the Action of vCPP2319, an Antimicrobial Peptide from a Viral Scaffold, against Staphylococcus aureus Biofilms of a Clinical Isolate” (ACS Infectious Diseases, 2023)", "format_in_all_cases": "cell-based, Staphylococcus aureus", "key": {"[1]": {"tested_on": "S. aureus ATCC 6538 biofilms", "experiment": "Resazurin reduction fluorometric assay on 24 h-preformed biofilms", "conditions": "0.78 to 50 μM, 4 h and 24 h treatment, dose-dependent", "protocol": "(§1) The effect of vCPP2319 on 24 h-preformed S. aureus biofilms was evaluated using three distinct methods, as previously described:[24] the metabolic activity and viability of biofilm-embedded cells was determined using a resazurin reduction fluorometric assay and a colony count assay, respectively. The total biofilm biomass was quantified by using a crystal violet assay.\n(§2) Resazurin, the active compound in alamarBlue reagent (Invitrogen), is a blue dye that can be reduced to a pink fluorescent intermediate, resorufin, as a result of cells metabolic activity.[48]S. aureus suspensions were prepared to a final concentration of 1 × 10^6 CFU/mL and incubated in a sterile 96-well microtiter black flat-bottomed polystyrene plate (Corning) for 24 h at 37 °C. […] After washing the biofilms twice with MHB, alamarBlue reagent was added at a final concentration 10% (v/v in MHB) to each sample and its reduction was monitored by measuring the fluorescence intensity (excitation and emission wavelengths were 530 and 590 nm, respectively) of the samples every 5 min during 2 h at 37 °C, in an infinite M200 microplate reader (Tecan). […] The percentage of resazurin reduction was determined relatively to the control, after blank (10% (v/v) alamarBlue reagent in MHB) correction."}, "[2]": {"tested_on": "S. aureus clinical isolate biofilms", "experiment": "Resazurin reduction fluorometric assay on 24 h-preformed biofilms", "conditions": "4 h treatment, only at 25 and 50 μM", "protocol": "as §1, §2"}, "[3]": {"tested_on": "S. aureus clinical isolate biofilms", "experiment": "AFM imaging, surface roughness (Rrms)", "conditions": "4 h; for cell surface roughness (Rrms): untreated 7.4 ± 1.9 nm; for biofilm surface roughness (Rrms): untreated 183 ± 23 nm", "protocol": "AFM was used to visualize the topography and morphology of S. aureus biofilms in the absence and presence of vCPP2319. Bacterial suspensions at 1 × 10^6 CFU/mL were incubated in a sterile slide with a removable 12 well silicone chamber (Ibidi) for 24 h at 37 °C. After a washing step with MHB, preformed biofilms were incubated in the absence or presence of vCPP2319 at 25 or 50 μM, for 4 h at 37 °C. Untreated and treated biofilms were then washed once with sterile Milli-Q water and incubated with 0.1% (v/v) glutaraldehyde (Sigma-Aldrich) for 4 h at room temperature. Afterward, each sample was washed twice with sterile Milli-Q water and allowed to dry in air for 1 h at room temperature. AFM images were acquired by using a JPK NanoWizard IV (Berlin, Germany) mounted on a Zeiss Axiovert 200 inverted microscope (Oberkochen, Germany). The AFM head was equipped with a 15 μm z-range linearized piezoelectric scanner and an infrared laser. Images were acquired in air and in intermittent contact mode using uncoated silicon ACL cantilevers from AppNano (Mountain View, CA, USA) with typical resonance frequencies of 200–400 kHz and spring constant of 13–77 N/m. Scan speeds ranged between 0.2 and 0.4 Hz and total scan areas of 5 × 5 μm were imaged. Height and error images were recorded. Height images reflect the topography of the sample. Error images are generated by the deflection of the cantilever as it bends while interacting with the sample and are adequate to improve resolution on the edges of objects imaged by AFM. For each experiment, three different areas were imaged. The surface roughness was defined as the root-mean-square roughness (Rrms)[52] and it was obtained from AFM height images using Gwyddion software version 2.56, based on the following equation after compensation for bacterial curvature: [drawing 3] 3 where N is the number of data points and zi is the height deviation of i-th point from a mean line.[53] For the biofilm surface roughness, Rrms values were calculated from the total imaged area of the biofilm, while for the cell surface roughness, Rrms values were calculated from a line of cells in three different regions of each image of untreated and peptide-treated biofilms. The final Rrms values are the averages of all measurements."}, "[4]": {"tested_on": "S. aureus clinical isolate biofilm-embedded bacteria", "experiment": "CLSM live/dead assay, SYTO 9 / TO-PRO-3 iodide, membrane integrity", "conditions": "25 and 50 μM, 4 h in PBS, inner layer z = 2 μm", "protocol": "To visualize the effect of vCPP2319 on membrane integrity of biofilm-embedded bacteria, an adapted live/dead assay using SYTO 9 and TO-PRO-3 iodide (Invitrogen) was performed, as previously described.[24]S. aureus suspensions at 1 × 10^6 CFU/mL were incubated in a sterile μ-Slide 8-well plate (Ibidi) for 24 h at 37 °C. Preformed biofilms were washed once with PBS and incubated with vCPP2319 at 25 or 50 μM, in PBS, for 4 h at 37 °C. Untreated biofilms were used as a control. After a washing step with PBS, biofilms were sequentially stained with 3 μM SYTO 9 for 30 min and 4 μM TO-PRO-3 iodide for 15 min at room temperature.\nSYTO 9 was excited using the Argon laser (488 nm), and both TO-PRO-3 iodide and WGA Alexa Fluor 633 were excited with the Helium–Neon laser (633 nm), respectively. […] All images were analyzed with the image processor Fiji.[54] TO-PRO-3 mean fluorescence intensity over the image was quantified from the xy plane of an inner layer (z = 2 μm, z being the distance from the surface of the glass slide) using Fiji’s incorporated plug-ins.[54] WGA mean fluorescence intensity over the image was quantified from the xy plane of an inner layer (z = 2 μm, z being the distance from the surface of the glass slide) and also from a z-projection of the sum of the z-stack slices, using Fiji’s incorporated plug-ins.[54] […]"}}, "note": "Where no end group is shown, it is not given here."}
{"substance": "WRRRYRRWRRRRRWRRRPRR-NH2 [vCPP2319]", "values": [{"measurement": "metabolic activity of biofilm-embedded cells", "setting": "[1]", "result": "significant reduction"}, {"measurement": "metabolic activity of biofilm-embedded cells", "setting": "[2]", "result": "significantly reduced"}, {"measurement": "cell surface roughness (Rrms)", "setting": "[3]; 25 μM", "result": "13 ± 3", "unit": "nm"}, {"measurement": "biofilm surface roughness (Rrms)", "setting": "[3]; 25 μM", "result": "303 ± 93", "unit": "nm"}, {"measurement": "cell surface roughness (Rrms)", "setting": "[3]; 50 μM", "result": "20 ± 5", "unit": "nm"}, {"measurement": "biofilm surface roughness (Rrms)", "setting": "[3]; 50 μM", "result": "429 ± 142", "unit": "nm"}, {"measurement": "membrane damage, TO-PRO-3 iodide staining", "setting": "[4]", "result": "increase of red-stained bacteria"}]}
